Assays:
Assay in all cases: pNP release at […] nm
Assay type in all cases: biochemical
Settings in all cases: 20 mM citrate phosphate pH 5.6, 60 °C
[1] = biological target: T1, RmBgl3B (Rhodothermus marinus, UniProt D0MD38)
T1 construct: gene Rmar_2069; recombinant in E. coli BL21 C43 (pET-21b(+)), signal peptide removed, C-terminal His-tag; locus tag is that of the type strain DSM 4252T homolog, gene cloned from DSM 4253
T1 sequence (D0MD38 21-839): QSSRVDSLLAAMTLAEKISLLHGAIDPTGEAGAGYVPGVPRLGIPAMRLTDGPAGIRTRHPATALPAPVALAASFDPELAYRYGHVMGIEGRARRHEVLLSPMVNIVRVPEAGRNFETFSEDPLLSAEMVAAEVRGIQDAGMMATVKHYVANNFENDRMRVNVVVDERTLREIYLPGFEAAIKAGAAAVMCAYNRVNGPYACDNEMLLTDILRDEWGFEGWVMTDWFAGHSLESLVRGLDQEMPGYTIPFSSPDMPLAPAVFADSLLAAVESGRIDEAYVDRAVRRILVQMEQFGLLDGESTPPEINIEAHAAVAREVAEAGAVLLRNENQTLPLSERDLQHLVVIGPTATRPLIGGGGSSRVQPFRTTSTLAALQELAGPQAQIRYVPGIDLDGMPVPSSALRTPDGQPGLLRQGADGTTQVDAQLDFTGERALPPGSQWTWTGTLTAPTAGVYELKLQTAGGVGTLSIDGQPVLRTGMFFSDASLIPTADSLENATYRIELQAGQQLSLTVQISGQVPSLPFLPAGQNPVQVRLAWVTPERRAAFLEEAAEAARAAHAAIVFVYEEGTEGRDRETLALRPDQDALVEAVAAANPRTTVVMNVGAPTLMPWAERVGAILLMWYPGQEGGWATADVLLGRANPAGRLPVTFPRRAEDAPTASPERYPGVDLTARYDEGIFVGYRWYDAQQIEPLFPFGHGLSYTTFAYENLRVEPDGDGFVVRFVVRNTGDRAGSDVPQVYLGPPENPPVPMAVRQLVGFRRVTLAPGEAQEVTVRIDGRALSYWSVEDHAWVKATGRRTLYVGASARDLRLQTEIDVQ

[2] = biological target: T2, RmXyl3B (Rhodothermus marinus, UniProt D0MHL5)
T2 construct: gene Rmar_1081; locus tag is that of the type strain DSM 4252T homolog, gene cloned from DSM 4253

[3] = biological target: T3, RmXyl3A (Rhodothermus marinus, UniProt D0MHL4)
T3 construct: gene Rmar_1080; locus tag is that of the type strain DSM 4252T homolog, gene cloned from DSM 4253
T3 sequence (D0MHL4 19-792): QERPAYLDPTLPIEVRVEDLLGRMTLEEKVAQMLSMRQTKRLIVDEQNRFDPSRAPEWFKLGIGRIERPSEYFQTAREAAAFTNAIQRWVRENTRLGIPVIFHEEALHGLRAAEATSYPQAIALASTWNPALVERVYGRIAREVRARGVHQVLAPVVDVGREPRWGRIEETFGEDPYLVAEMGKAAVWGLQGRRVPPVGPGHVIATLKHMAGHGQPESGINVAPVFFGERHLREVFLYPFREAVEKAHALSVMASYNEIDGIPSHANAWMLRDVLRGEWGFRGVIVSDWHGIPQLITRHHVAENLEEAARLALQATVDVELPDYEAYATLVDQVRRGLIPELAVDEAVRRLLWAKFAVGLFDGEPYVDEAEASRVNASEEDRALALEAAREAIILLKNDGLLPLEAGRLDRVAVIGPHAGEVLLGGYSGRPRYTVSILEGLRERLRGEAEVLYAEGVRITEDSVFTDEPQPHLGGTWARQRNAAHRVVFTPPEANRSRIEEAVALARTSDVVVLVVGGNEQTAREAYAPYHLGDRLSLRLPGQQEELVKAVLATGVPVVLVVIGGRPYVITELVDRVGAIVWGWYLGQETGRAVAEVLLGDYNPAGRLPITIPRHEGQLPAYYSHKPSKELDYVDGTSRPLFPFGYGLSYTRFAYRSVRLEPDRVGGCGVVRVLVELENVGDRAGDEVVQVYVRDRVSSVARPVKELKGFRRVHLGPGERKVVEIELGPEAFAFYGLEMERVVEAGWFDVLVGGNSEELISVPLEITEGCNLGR

T2 sequence (D0MHL5 entry or part of it): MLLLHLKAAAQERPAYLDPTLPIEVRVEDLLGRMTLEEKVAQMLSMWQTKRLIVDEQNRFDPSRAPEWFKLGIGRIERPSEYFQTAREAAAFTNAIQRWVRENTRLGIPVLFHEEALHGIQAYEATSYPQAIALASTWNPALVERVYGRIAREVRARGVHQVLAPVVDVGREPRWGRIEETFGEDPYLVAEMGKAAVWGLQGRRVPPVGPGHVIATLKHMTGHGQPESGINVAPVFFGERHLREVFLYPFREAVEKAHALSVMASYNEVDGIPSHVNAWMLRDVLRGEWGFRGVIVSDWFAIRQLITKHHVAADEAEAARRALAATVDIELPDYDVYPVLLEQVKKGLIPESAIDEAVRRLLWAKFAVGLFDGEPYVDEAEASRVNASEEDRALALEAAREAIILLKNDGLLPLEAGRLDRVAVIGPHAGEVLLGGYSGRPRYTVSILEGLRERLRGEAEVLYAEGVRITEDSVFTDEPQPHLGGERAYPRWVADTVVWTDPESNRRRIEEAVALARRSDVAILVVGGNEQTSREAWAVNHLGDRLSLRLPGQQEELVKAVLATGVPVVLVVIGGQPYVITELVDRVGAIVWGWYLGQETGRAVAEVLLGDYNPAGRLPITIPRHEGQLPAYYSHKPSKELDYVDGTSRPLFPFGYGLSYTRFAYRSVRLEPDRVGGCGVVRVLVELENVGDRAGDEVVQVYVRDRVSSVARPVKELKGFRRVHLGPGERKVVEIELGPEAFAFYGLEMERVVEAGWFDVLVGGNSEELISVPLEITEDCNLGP

pNP-α-L-Ara
Km [1]: 1900 ± 100 µM | Km [2]: 2000 ± 200 µM | Km [3]: 8800 ± 1000 µM

Source: paper PMC6987092, “Characterization and diversity of the complete set of GH family 3 enzymes from Rhodothermus marinus DSM 4253” (Scientific Reports, 2020)
